Data reported in ChEMBL document CHEMBL5038592, “Discovery of MK-8153, a Potent and Selective ROMK Inhibitor and Novel Diuretic/Natriuretic” (J Med Chem, 2021).
Active and inactive are the calls of the source. The rule behind the calls is not given here.

Key:
Rattus norvegicus [1] = test: Diuretic activity in orally dosed spontaneous hypertensive rat assessed as urine volume treated for 3 days measured after 0 to 24 hrs of dosing; type: functional, organism-based; conditions: time 3.0 day
[2] = Volume of distribution at steady state in rhesus monkey at 2 mg/kg, po or 1 mg/kg, iv; type: ADME, organism-based, Macaca mulatta; conditions: in vivo, read-out: Vdss
[3] = Metabolic stability in Wistar Han rat hepatocytes by LC/MS analysis; type: ADME, cell-based, Hepatocyte
[4] = Drug excretion in bile-duct cannulated rat assessed as urinary excretion; type: ADME; conditions: urine, read-out: Drug excretion
[5] = Drug metabolism in Beagle dog hepatocytes assessed as metabolite formation by LC/MS analysis; type: ADME, cell-based, Canis lupus familiaris, Hepatocyte
[6] = molecular target: T1, ATP-sensitive inward rectifier potassium channel 1 (Rattus norvegicus, UniProt P35560); test: Inhibition of rat Kir1.1 expressed in HEK293 cells by electrophysiology assay; type: cell-based
T1 sequence (P35560 whole entry): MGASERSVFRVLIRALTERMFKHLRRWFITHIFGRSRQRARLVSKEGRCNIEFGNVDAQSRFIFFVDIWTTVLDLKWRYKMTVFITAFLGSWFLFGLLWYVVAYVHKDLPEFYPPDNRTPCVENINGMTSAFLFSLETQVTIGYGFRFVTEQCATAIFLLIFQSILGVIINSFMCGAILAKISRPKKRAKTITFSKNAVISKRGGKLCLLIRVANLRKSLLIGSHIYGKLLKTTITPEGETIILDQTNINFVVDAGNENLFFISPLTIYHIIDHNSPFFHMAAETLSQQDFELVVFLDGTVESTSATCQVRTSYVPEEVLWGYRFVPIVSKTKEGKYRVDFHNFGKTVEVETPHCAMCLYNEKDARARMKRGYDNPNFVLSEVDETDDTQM

[7] = Oral bioavailability in rhesus monkey at 2 mg/kg; type: ADME, organism-based, Macaca mulatta; conditions: in vivo
[8] = molecular target: T2, Inward rectifier potassium channel 13 (Homo sapiens, UniProt O60928); test: Inhibition of Kir7.1 (unknown origin)
T2 sequence (O60928 whole entry): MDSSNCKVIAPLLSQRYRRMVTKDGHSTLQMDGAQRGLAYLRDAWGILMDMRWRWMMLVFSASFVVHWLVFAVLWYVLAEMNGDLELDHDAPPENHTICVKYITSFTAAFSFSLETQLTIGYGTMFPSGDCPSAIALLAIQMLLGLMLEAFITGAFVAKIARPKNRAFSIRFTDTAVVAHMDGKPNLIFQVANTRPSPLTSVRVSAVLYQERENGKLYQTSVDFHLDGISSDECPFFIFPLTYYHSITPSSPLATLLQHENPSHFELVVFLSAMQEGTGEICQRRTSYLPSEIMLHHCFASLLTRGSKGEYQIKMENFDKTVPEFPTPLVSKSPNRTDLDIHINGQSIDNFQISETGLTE

[9] = Cmax in Wistar Han rat at 2 mg/kg, po or 1 mg/kg, iv; type: ADME, organism-based; set-up: dose 2 mg/kg; conditions: in vivo
[10] = molecular target: Sodium channel protein type 5 subunit alpha (Homo sapiens, UniProt Q14524); test: Inhibition of Nav1.5 (unknown origin)
[11] = Metabolic stability in rhesus monkey liver microsomes by LC/MS analysis; type: ADME, Macaca mulatta, Microsome
[12] = Clearance in Wistar Han rat at 2 mg/kg, po or 1 mg/kg, iv; type: ADME, organism-based; conditions: in vivo
[13] = Metabolic stability in human liver microsomes by LC/MS analysis; type: ADME, Microsome
[14] = Metabolic stability in Beagle dog hepatocytes by LC/MS analysis; type: ADME, cell-based, Canis lupus familiaris, Hepatocyte
[15] = Drug metabolism in Wistar Han rat hepatocytes assessed as metabolite formation by LC/MS analysis; type: ADME, cell-based, Hepatocyte
[16] = molecular target: Voltage-dependent L-type calcium channel subunit alpha-1C (Homo sapiens, UniProt Q13936); test: Inhibition of Cav1.2 (unknown origin)
Rattus norvegicus [17] = test: Diuretic activity in orally dosed spontaneous hypertensive rat assessed as increase in sodium excretion treated for 3 days measured after 0 to 24 hrs of dosing; type: functional, organism-based; conditions: time 3.0 day
[18] = Metabolic stability in human hepatocytes by LC/MS analysis; type: ADME, cell-based, Hepatocyte
[19] = Terminal half life in Beagle dog at 2 mg/kg, po or 1 mg/kg, iv; type: ADME, organism-based, Canis lupus familiaris; conditions: in vivo, read-out: beta t1/2 (converted)
[20] = Tmax in rhesus monkey at 2 mg/kg, po or 1 mg/kg, iv; type: ADME, organism-based, Macaca mulatta; conditions: in vivo
[21] = Toxicity in dog assessed as tolerance at 0.3 to 6 mg/kg treated for 7 days; type: organism-based, Canis lupus familiaris; conditions: in vivo, 168 h, dose 0.3-6 mg/kg, time 7 day
[22] = Clearance in Beagle dog at 2 mg/kg, po or 1 mg/kg, iv; type: ADME, organism-based, Canis lupus familiaris; conditions: in vivo
[23] = Toxicity in rat assessed as tolerance at 5 to 300 mg/kg treated for 7 days; type: organism-based; conditions: in vivo, 168 h, dose 5-300 mg/kg, time 7 day
[24] = Clearance in rhesus monkey at 2 mg/kg, po or 1 mg/kg, iv; type: ADME, organism-based, Macaca mulatta; conditions: in vivo
Cytochrome P450 2D6 = Cytochrome P450 2D6 (Homo sapiens, UniProt P10635); test: Inhibition of CYP2D6 (unknown origin)
[25] = Oral bioavailability in Wistar Han rat at 2 mg/kg; type: ADME, organism-based; conditions: in vivo
Cytochrome P450 3A4 = Cytochrome P450 3A4 (Homo sapiens, UniProt P08684); test: Inhibition of CYP3A4 (unknown origin)
Rattus norvegicus [26] = test: Antihypertensive activity in spontaneous hypertensive rat model assessed as decrease in systolic blood pressure at 1 mg/kg, po QD observed for 3 days; type: functional, organism-based; conditions: time 3.0 day
[27] = Inhibition of Kir2.1 (unknown origin); set-up: species or system Homo sapiens
Cytochrome P450 2C8 = molecular target: T3, Cytochrome P450 2C8 (Homo sapiens, UniProt P10632); test: Inhibition of CYP2C8 (unknown origin)
T3 sequence (P10632 whole entry): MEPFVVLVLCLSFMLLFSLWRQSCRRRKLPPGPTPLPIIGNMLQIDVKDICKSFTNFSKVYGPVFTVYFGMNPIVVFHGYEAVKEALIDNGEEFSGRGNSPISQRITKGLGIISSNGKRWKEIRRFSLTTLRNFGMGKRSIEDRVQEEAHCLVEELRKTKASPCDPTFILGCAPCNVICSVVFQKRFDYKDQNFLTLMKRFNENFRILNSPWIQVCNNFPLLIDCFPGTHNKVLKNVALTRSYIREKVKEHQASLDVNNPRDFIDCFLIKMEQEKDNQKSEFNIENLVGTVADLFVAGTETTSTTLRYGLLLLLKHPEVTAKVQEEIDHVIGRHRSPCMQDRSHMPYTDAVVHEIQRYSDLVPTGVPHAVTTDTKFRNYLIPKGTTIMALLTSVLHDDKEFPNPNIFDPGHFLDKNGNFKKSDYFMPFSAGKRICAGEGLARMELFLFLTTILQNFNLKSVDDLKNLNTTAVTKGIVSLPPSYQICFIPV

[28] = Cmax in Beagle dog at 2 mg/kg, po or 1 mg/kg, iv; type: ADME, organism-based, Canis lupus familiaris; set-up: dose 2 mg/kg; conditions: in vivo
[29] = Effective half life in Beagle dog at 2 mg/kg, po or 1 mg/kg, iv; type: ADME, organism-based, Canis lupus familiaris; conditions: in vivo, read-out: t1/2eff (converted)
[30] = Metabolic stability in Wistar Han rat liver microsomes by LC/MS analysis; type: ADME, Microsome

Sodium channel protein type 5 subunit alpha, sequence (Q14524 whole entry): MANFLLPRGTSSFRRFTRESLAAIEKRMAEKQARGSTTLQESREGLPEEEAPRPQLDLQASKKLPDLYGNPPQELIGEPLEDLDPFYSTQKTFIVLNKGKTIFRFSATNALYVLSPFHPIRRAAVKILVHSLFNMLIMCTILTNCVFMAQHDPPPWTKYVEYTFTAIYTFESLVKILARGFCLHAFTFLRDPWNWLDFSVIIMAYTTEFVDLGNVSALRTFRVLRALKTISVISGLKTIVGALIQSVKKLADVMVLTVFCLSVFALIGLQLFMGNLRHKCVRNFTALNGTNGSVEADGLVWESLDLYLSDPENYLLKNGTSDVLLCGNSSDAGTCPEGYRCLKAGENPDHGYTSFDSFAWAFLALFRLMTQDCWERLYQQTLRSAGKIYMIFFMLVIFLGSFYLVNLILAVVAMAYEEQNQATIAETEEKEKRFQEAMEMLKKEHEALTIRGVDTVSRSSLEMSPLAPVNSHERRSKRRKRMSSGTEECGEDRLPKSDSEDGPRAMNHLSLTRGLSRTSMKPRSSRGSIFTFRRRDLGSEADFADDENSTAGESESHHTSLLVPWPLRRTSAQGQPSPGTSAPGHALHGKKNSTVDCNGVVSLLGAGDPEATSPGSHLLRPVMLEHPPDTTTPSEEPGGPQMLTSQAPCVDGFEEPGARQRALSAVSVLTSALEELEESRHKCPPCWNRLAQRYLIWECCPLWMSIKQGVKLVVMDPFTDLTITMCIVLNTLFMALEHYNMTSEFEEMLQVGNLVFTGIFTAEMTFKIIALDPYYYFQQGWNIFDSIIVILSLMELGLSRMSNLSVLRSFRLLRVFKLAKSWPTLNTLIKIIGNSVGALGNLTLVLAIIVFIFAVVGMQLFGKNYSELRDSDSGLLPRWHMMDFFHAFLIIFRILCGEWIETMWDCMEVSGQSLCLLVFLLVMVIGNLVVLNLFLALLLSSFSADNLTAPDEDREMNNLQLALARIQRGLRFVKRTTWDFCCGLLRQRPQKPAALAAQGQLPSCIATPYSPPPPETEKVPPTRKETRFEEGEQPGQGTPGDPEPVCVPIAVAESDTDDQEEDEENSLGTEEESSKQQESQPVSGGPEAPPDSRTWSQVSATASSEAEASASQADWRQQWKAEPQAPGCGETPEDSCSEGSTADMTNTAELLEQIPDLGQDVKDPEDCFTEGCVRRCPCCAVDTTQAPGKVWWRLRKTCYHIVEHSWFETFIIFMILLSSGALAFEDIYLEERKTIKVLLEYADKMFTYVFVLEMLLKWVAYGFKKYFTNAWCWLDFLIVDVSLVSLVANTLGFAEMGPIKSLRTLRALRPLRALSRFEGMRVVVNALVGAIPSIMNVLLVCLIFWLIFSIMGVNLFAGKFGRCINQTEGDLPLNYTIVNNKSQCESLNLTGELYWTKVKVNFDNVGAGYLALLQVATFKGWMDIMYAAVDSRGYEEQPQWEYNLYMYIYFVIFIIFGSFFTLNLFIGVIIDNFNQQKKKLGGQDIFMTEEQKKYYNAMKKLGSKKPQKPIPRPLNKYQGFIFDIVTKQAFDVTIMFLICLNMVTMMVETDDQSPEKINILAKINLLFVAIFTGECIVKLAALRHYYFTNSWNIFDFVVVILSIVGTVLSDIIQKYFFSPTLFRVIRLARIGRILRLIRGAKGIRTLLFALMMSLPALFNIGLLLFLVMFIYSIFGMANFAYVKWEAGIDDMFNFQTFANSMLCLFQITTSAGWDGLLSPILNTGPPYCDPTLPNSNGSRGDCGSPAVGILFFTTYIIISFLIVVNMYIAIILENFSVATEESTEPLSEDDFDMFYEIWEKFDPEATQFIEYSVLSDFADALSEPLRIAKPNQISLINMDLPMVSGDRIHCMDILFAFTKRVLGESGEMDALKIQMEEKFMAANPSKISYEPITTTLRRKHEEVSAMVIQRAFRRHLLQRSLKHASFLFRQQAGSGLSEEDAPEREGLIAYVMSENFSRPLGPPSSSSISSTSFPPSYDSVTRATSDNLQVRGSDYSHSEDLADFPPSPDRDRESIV
Voltage-dependent L-type calcium channel subunit alpha-1C, sequence (Q13936 whole entry): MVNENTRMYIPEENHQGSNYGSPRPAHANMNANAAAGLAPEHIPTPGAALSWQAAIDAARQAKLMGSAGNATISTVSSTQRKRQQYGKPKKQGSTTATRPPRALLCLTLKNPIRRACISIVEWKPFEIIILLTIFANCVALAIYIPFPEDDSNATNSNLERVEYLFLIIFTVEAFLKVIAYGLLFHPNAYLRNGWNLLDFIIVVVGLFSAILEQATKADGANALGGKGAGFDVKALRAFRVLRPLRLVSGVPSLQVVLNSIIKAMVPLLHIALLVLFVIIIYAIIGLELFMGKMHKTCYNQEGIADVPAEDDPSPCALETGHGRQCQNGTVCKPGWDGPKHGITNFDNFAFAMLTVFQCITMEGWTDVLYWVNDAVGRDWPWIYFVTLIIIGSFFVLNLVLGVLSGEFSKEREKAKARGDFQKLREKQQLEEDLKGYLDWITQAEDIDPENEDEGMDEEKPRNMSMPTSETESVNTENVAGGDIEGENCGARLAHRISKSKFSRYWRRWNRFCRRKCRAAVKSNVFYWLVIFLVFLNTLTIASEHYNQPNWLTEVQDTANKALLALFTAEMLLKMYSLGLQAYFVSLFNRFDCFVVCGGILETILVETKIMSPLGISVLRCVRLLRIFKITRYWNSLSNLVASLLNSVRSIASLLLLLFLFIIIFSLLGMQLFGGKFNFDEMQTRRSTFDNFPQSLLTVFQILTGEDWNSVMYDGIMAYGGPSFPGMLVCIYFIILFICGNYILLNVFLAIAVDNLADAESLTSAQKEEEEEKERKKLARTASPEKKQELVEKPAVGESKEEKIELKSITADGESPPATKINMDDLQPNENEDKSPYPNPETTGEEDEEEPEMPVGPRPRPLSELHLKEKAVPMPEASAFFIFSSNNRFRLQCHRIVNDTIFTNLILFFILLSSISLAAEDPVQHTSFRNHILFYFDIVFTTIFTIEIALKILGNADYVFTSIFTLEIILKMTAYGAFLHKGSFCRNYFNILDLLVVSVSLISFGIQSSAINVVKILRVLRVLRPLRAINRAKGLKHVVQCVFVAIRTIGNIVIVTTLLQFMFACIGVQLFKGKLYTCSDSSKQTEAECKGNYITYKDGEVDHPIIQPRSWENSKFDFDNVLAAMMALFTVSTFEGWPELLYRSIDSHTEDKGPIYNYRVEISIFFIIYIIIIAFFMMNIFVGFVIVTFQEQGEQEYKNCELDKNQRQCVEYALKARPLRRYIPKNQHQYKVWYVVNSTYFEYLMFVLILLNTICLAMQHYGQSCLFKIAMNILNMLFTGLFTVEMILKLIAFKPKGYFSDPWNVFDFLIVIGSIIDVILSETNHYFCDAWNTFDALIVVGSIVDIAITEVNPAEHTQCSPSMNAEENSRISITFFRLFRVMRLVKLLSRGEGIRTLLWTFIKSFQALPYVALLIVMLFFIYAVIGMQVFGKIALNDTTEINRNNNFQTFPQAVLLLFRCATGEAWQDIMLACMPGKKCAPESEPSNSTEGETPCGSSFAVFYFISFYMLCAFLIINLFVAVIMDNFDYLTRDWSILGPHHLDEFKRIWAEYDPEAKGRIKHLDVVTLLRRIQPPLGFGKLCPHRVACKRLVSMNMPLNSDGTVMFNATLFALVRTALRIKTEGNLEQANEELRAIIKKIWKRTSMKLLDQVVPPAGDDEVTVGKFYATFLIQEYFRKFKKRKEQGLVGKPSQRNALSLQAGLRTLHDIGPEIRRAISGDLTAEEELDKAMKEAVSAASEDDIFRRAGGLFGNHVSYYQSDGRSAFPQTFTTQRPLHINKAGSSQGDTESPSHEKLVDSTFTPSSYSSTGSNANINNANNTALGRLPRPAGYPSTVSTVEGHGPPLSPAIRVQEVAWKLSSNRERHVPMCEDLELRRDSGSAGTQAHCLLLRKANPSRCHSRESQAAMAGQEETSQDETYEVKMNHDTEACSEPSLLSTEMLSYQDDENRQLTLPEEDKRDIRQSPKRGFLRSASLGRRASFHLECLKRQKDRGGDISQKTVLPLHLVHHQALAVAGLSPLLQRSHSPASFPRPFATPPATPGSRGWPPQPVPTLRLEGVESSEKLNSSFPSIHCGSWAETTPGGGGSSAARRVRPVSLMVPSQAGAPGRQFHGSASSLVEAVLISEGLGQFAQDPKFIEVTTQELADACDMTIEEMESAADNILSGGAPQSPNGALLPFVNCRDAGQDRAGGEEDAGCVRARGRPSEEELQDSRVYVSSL
Cytochrome P450 2D6, sequence (P10635 whole entry): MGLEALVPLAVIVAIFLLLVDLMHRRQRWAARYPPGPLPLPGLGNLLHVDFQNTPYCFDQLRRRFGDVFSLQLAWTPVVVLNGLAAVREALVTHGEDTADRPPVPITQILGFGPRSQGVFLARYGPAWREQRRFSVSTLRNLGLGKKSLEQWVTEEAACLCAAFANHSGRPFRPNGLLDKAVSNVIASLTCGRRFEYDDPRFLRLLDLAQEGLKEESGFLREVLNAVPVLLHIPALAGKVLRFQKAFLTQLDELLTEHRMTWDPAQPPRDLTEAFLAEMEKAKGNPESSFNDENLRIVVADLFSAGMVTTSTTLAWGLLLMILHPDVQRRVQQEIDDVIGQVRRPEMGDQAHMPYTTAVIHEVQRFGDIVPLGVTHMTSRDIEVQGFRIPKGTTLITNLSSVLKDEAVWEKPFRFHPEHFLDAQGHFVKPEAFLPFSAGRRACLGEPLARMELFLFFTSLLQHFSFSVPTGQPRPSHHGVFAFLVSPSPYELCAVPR

For `CC1=C(N2CCC3(CCN(C[C@H](O)c4ccc5c(c4C)COC5=O)CC3)C2=O)COC1=O`, the Activity (Rattus norvegicus [1]) was “Dose-Dependent Effect”, the Vd [2] was 7.9 L/kg and the Stability [3] was “Stable”. For the same compound, the dose excreted [4] was 66%, the Drug metabolism [5] was “Metabolite_Notdetected” and the IC50 [6] was 0.0028 µM. For the same compound, the bioavailability [7] was 3.4%, the IC50 [8] was over 100 µM and the Cmax [9] was 310 nM. For the same compound, the IC50 [10] was over 30 µM, the Stability [11] was “Stable” and the clearance [12] was 29.4 mL/min/kg. The Stability [13] was “Stable”, the Stability [14] was “Stable” and the Drug metabolism [15] was “Metabolite_Notdetected”. The IC50 [16] was over 30 µM, the Activity (Rattus norvegicus [17]) was “Dose-Dependent Effect” and the Stability [18] was “Stable”. For the same compound, the half-life [19] was 9.1 h, the Tmax [20] was 0.5 h and the Activity [21] was “Non-Toxic”. The clearance [22] was 8.7 mL/min/kg, the Activity [23] was “Non-Toxic” and the clearance [24] was 58.3 mL/min/kg. It also gave an IC50 (Cytochrome P450 2D6) of over 50 µM, a bioavailability [25] of 53% and an IC50 (Cytochrome P450 3A4) of over 50 µM. For the same compound, the Activity (Rattus norvegicus [26]) was “Active”, the IC50 [27] was over 100 µM and the IC50 (Cytochrome P450 2C8) was over 50 µM. The Cmax [28] was 2400 nM, the half-life [29] was 6.8 h and the Stability [30] was “Stable”.
